{
  "source": "patent US20200405881A1",
  "about": "“CELL BASED METHODS AND COMPOSITIONS FOR THERAPEUTIC AGENT DELIVERY AND TREATMENTS USING SAME” (UNIVERSITY OF WASHINGTON, priority 2017, published 2020)",
  "molecules": {"B1": {"name": "macrophage derived IL-7: IL-7 produced by macrophages transduced with a vector encoding constitutive IL-7 (protein, UniProt P13232 26-177, looked up)", "Interleukin-7": "DCDIEGKDGKQYESVLMVSIDQLLDSMKEIGSNCLNNEFNFFKRHICDANKEGMFLFRAARKLRQFLKMNSTGDFDLHLLKVSEGTTILLNCTGQVKGRKPAALGEAQPTKSLEENKSLKEQKKLNDLCFLKRLLQEIKTCWNKILMGTKEH"}},
  "key": {"macrophages [1]": {"test_system": "macrophages", "test": "Free resiquimod and galunisertib testing, cytokines and phenotype (Example 9)", "assay_type": "cell-based, human", "settings": "Galunisertib 56 nM for 1 hour, on its own", "description": "(§1) Methods: CD14+ monocytes were isolated from PBMCs and differentiated to macrophages in RPMI/10% FBS with 10 ng/mL GM-CSF or 25 ng/ml M-CSF for 6 days. Macrophages were incubated with Resiquimod (1 ug/ml) and/or Galunisertib (56 nM) for 1 hour, then stimulated with 1 ug LPS/100U/ml IFNg to determine impact on viability using flow cytometry of cells and pro-inflammatory responsiveness using a 30plex for human cytokines on cell supernatant 24 hours after stimulation. Expression of bFGF, IL-1B, GCSF, IL10, 1L^13, IL6, IL12, Rantes, MIP1a, GMCSF, MIP1B, MCP1, IL15, EGF, IL5, HGF, VEGF, IFNg, IFNa, IL1RA, TNFa, IL7, IP10, IL2R, MIG, and IL8 was measured in the following treatment groups: M1 control, M1 resiquimod, M1 galunisertib, M1 resiquimod+galunisertib, M1 LPS/IFNg+resiquimod, M1 LPS/IFNg+galunisertib, M1 LPS/IFNg+resiquimod, +galunisertib, M2 control, M2 resiquimod, M2 galunisertib, M2 resiquimod+galunisertib, M2 LPS/IFNg+resiquimod, M2 LPS/IFNg+galunisertib, and M LPS/IFNg+resiquimod, +galunisertib (data not shown). […]"}, "primary macrophages": {"test_system": "primary macrophages", "test": "Free resiquimod and galunisertib testing, toxicity (Example 9)", "assay_type": "cell-based, human", "settings": "Resiquimod 1 ug/ml and/or Galunisertib 56 nM, alone or in combination", "description": "as §1"}, "macrophages [2]": {"test_system": "macrophages", "test": "Toxicity of drugamers to macrophages (Examples 5 and 6)", "assay_type": "cell-based", "settings": "50 or 500 ng/mL drugamer; data not shown", "description": "Methods: CD14+ monocytes were isolated from PBMCs and differentiated to macrophages in RPMI/10% FBS with 10 ng/mL GM-CSF. After 6 days in culture, cells were replated into a 12 well dish, with 250K cells/well. The following day, they were mock transduced or transduced with vector control (EGFRt) or membrane-bound anti-FITC:EGFRt. Media was changed every 3 days. Seven days after transduction, all cells were washed twice with PBS and treated with either 50 or 500 ng/mL drugamer, which contained FITC and CMP8, in PBS. After a 15 min incubation at 37° C., cells were washed twice with PBS and one group of cells (“15 min”) was non-enzymatically detached with VERSENE™ and immediately fixed for flow with 2% paraformaldehyde. After the PBS wash, the other group of cells was allowed to recover in RP10 for 72 hours before detaching/fixing\nMethods: CD14+ monocytes were isolated from PBMCs and differentiated to macrophages in RPMI/10% FBS with 10 ng/mL GM-CSF. After 6 days in culture, cells were replated into a 12 well dish, with 250K cells/well. The following day, they were mock transduced or transduced with vector control (EGFRt) or membrane-bound anti-FITC:EGFRt. Media was changed every 3 days. […] Rhodamine fluorescence was measured, indicating the presence of drugamer following 10 days in culture (data not shown)."}, "M1 polarized macrophages": {"test_system": "M1 polarized macrophages", "test": "Free PI103 testing, 30plex cytokines, M1 macrophages (Example 8)", "assay_type": "cell-based, human", "settings": "500 nM PI103 for 1 hour, then LPS/IFNg, 24 hours", "description": "(§2) Methods: CD14+ monocytes were isolated from PBMCs and differentiated to macrophages in RPMI/10% FBS with 10 ng/mL GM-CSF or 25 ng/ml M-CSF for 6 days. Macrophages were incubated with 500 nM PI103 for 1 hour, then stimulated with 1 ug LPS/100U/ml IFNg to determine impact on viability using flow cytometry of cells and pro-inflammatory responsiveness using a 30plex for human cytokines on cell supernatant 24 hours after stimulation. The expression of MIP1B, MCP1, IL15, EGF, HGF, VEGF, IFNg, IFNa, IL1RA, TNFa, IL7, IP10, IL2R, MIG, IL4, and IL8 was determined for each of the following groups: M1 control, M1 PI103, M1 LPS/IFNg, M1 PI103 LPS/IFNg, M2 control, M2 PI103, M2 LPS/IFNg, and M2 PI103 LPS/IFNg (data not shown). A summary of the significant data when using t-test to compare between treatment groups with and without Pi103 is shown for M1 macrophages in FIG. 22A and M2 macrophages in FIG. 22B."}, "M2 polarized macrophages": {"test_system": "M2 polarized macrophages", "test": "Free PI103 testing, 30plex cytokines, M2 macrophages (Example 8)", "assay_type": "cell-based, human", "settings": "500 nM PI103 for 1 hour, then LPS/IFNg, 24 hours", "description": "as §2"}, "[3]": {"test_system": "MCSF polarized M2 macrophages", "test": "Free PI103 testing, flow cytometry of surface markers (Example 8)", "assay_type": "cell-based, human", "settings": "500 nM PI103", "description": "as §2, with “22B. Flow cytometry staining included Live/Dead, HLA-DR, CD11b and CD14 to confirm expression of macrophage surface markers and viability (data not shown), as well as CD206 (anti-inflammatory macrophage marker; data not shown), CD163 (anti-inflammatory macrophage marker; data not shown), CD80 and CD86 (costimulatory molecules; data not shown).” for “22B.”"}, "[4]": {"test_system": "CCR expressing CAR T cells", "test": "Exhaustion marker expression on CAR T cells cultured with macrophage derived IL-7 (Example 10)", "assay_type": "cell-based", "settings": "in contrast to culture with recombinant IL-7, FIG. 23C", "description": "Methods: CD14+ monocytes were isolated from PBMCs and differentiated to macrophages in RPMI/10% FBS with 10 ng/mL GM-CSF. After 6 days in culture, cells were replated into a 12 well dish, with 250K cells/well. The following day, they were mock transduced or transduced with vector control (EGFRt) or a vector encoding constitutive IL-7 under the control of the EF1a promoter. Autologous T cells were transduced with a chimeric cytokine receptor shown on FIG. 23A, and an anti-EGFRvIII specific CAR. T cells were magnetically separated based on CD4 and CD8 expression and expanded in vitro using Miltenyi CD3/CD28 beads and frozen. CFSE Cell Trace labeled CD4 or CD8 T cells were used in proliferation assays in response to IL-7 transduced macrophages."}},
  "data": [
    {"molecule": "Cc1cccc(-c2nn3c(c2-c2ccnc4ccc(C(N)=O)cc24)CCC3)n1", "note": "[Galunisertib]", "values": [
      {"measurement": "phenotypic or functional response to stimulation", "setting": "macrophages [1]", "value": "little impact on phenotypic or functional response to stimulation"},
      {"measurement": "toxicity to primary macrophages", "setting": "primary macrophages", "value": "neither molecule alone or in combination is toxic to primary macrophages"}
    ]},
    {"molecule": "O=C1CCC2(Cc3ccc(Cl)cc3)Cc3cc(O)ccc3C2=C1c1ccc(OCCN2CCCCC2)cc1", "note": "(stereo not shown) [CMP8, 9a-(4-Chlorobenzyl)-7-hydroxy-4-[4-(2-piperidin-1-ylethoxy)phenyl]-1,2,9,9a-tetrahydro-3H-fluoren-3-one]", "values": [
      {"measurement": "toxicity to macrophages", "setting": "macrophages [2]", "value": "toxicity is linked to CMP8"}
    ]},
    {"molecule": "Oc1cccc(-c2nc(N3CCOCC3)c3oc4ncccc4c3n2)c1", "note": "[PI103]", "values": [
      {"measurement": "pro-inflammatory cytokine production", "setting": "M1 polarized macrophages", "value": "decrease"},
      {"measurement": "pro-inflammatory TNFalpha production", "setting": "M2 polarized macrophages", "value": "increase"},
      {"measurement": "antigen presentation surface proteins CD80 and CD86", "setting": "[3]", "value": "increase"},
      {"measurement": "surface markers consistent with an anti-inflammatory phenotype", "setting": "[3]", "value": "decrease"}
    ]},
    {"molecule": "CCOCc1nc2c(N)nc3ccccc3c2n1CC(C)(C)O", "note": "[resiquimod]", "values": [
      {"measurement": "toxicity to primary macrophages", "setting": "primary macrophages", "value": "neither molecule alone or in combination is toxic to primary macrophages"}
    ]},
    {"molecule": "B1", "values": [
      {"measurement": "expression of exhaustion markers TIM3, PD-1, and CD95", "setting": "[4]", "value": "reduced"},
      {"measurement": "expression of exhaustion markers TIM3, PD-1, and CD95", "setting": "[4]; listed as GEM derived IL-7", "value": "reduces exhaustion marker expression"}
    ]}
  ]
}
